US20260207621A1 (Vividion Therapeutics, Inc., priority 2022, published 2026)

Key:
Nrf2 = Nrf2 antagonism assay: ARE luciferase reporter in KYSE-70 cells; assay type: cell-based; details: positive Imax corresponds to Nrf2 antagonism; for Emax: Homo sapiens, KYSE-70, KYSE-70 cells, read-out: KYSE70 Cellular ARE Luciferase Imax (%); for KYSE70 Cellular ARE Luciferase Imax (%): KYSE-70 cells
Outline: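 KYSE-70 esophageal squamous carcinoma cells carrying Nrf2 W24C (constitutively Nrf2-high) with an ARE-driven luciferase reporter. Loss of luciferase signal reflects Nrf2 antagonism via KEAP1 C151 engagement. IC50 and Imax come from dose-response curves; positive Imax means antagonism.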

KEAP1 C151 = target: T1, KEAP1 C151 (Homo sapiens, UniProt Q14145); test: Nrf2 TMT measurement: in vitro TE50 for KEAP1 C151 (IA-DTB competition, targeted TMT mass spectrometry) in MDA-MB-468 cell lysate; assay type: binding; details: in vitro target engagement of KEAP1 C151, targeted TMT, read-out: KEAP1_C151 TE50
T1 construct: treating 500 μg of cell lysate generated from MDA-MB-468 breast cancer cells with DMSO or compound; endogenous in cells; host or cells: MDA-MB-468 breast cancer cell lysate
Outline: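 MDA-MB-468 lysate (500 μg) treated with compound for 1 h at room temperature, then 200 μM IA-DTB for 1 h. Labeled peptides streptavidin-enriched after trypsin digest, TMT-labeled and quantified by targeted MS3 on the KEAP1 C151 peptide. IC50 from dose-response curve fitting.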

T1 sequence (Q14145 whole entry): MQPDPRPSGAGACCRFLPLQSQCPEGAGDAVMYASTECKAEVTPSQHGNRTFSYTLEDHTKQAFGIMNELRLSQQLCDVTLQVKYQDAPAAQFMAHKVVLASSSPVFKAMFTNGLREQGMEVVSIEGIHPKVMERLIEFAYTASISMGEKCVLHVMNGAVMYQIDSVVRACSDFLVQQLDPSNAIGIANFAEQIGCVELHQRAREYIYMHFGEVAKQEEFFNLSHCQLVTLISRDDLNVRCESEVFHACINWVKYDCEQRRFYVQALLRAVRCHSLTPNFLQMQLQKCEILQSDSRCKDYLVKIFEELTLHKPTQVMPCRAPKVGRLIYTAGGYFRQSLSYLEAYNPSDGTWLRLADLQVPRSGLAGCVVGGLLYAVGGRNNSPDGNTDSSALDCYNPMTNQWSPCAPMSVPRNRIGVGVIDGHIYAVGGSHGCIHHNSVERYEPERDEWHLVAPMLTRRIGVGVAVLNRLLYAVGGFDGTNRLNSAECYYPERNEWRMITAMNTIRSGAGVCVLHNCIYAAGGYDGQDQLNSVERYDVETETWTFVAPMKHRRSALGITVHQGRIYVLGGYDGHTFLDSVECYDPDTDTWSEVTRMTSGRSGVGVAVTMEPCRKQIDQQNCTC

| SMILES | IC50 (KEAP1 C151) [nM] | Emax (Nrf2) [%] | KYSE70 Cellular ARE Luciferase Imax (%) (Nrf2) |
| --- | --- | --- | --- |
| C=CC(=O)N1[C@H](C(N)=O)COC[C@H]1c1cc(Cl)nc(-c2cc(N)ncn2)c1 (single isomer, unassigned) [Compound 172] | 20 | 71 | – |
| C=CC(=O)N1CCS(=O)(=O)CC1c1cc(Cl)cc(-c2ncnc(N)n2)c1 (single isomer, unassigned) [Compound 205, 1-(3-(3-(4-amino-1,3,5-triazin-2-yl)-5-chlorophenyl)-1,1-dioxidothiomorpholino)prop-2-en-1-one] | 34 | – | 92 |
| C=CC(=O)N1CCOC[C@H]1c1cc(Cl)cc(C2CNC(=S)N(C)C2)c1 (single isomer, unassigned) [Compound 227] | 95 | – | 90 |
| C=CC(=O)N1CCS(=O)(=O)CC1c1cc(Cl)cc(-c2nccc(N)n2)c1 (single isomer, unassigned) [Compound 209, 1-(3-(3-(4-aminopyrimidin-2-yl)-5-chlorophenyl)-1,1-dioxidothiomorpholino)prop-2-en-1-one] | 82 | 93 | – |
| C=CC(=O)N1CC[C@@](C)(O)C[C@@H]1c1cc(Cl)cc(-c2ncc(N)cn2)c1 (single isomer, unassigned) [Compound 264] | 160 | 86 | – |
| C=CC(=O)N1CCOCC12COc1c(-c3ccccc3)cc(Cl)cc12 (racemic) [Compound 7, 1-(5-chloro-7-phenyl-2H-spiro[benzofuran-3,3′-morpholin]-4′-yl)prop-2-en-1-one] | 5260 | 55 | – |
| C=CC(=O)N1CC2(CCCC2)OCC1(C)c1cc(Cl)cc(-c2ccnc(N)n2)c1 (single isomer, unassigned) [Compound 163, 1-(8-(3-(2-aminopyrimidin-4-yl)-5-chlorophenyl)-8-methyl-6-oxa-9-azaspiro[4.5]decan-9-yl)prop-2-en-1-one] | 610 | 72 | – |
| C=CC(=O)N1CCOC[C@H]1c1cc(Cl)cc(N2CCC(N)C2=O)c1 (single isomer, unassigned) [Compound 230] | 820 | 51 | – |
| C=CC(=O)N1C[C@H](C)OC[C@H]1c1cc(Cl)cc(-c2ccc(F)c(C(N)=O)c2)c1 (single isomer, unassigned) [Compound 182] | 16 | 89 | – |
| C=CC(=O)N1CCOCC1c1cc(C#N)cc(-c2ccc(F)c(C(N)=O)c2)c1 (single isomer, unassigned) [Compound 67, 3′-(4-acryloylmorpholin-3-yl)-5′-cyano-4-fluoro-[1,1′-biphenyl]-3-carboxamide] | 19 | 73 | – |
| C=CC(=O)N1CCOC[C@H]1c1cc(Cl)cc(-c2nc(Cl)ncc2N)c1 (single isomer, unassigned) [Compound 268] | 490 | 53 | – |
| C=CC(=O)N1CCOC[C@H]1c1cc(Cl)cc(N2CCN=C(N)C2)c1 (single isomer, unassigned) [Compound 244] | 150 | 81 | – |
| C=CC(=O)N1CCOC[C@H]1c1cc(Cl)cc(-c2cc(N)[nH]n2)c1 (single isomer, unassigned) [Compound 235] | 110 | 86 | – |
| C=CC(=O)N1CCOC[C@H]1c1cc(Cl)cc(-c2ncc(N)c(OC)n2)c1 (single isomer, unassigned) [Compound 254] | 86 | 92 | – |
| C=CC(=O)N1CC(C)(C)OC[C@H]1c1cc(Cl)cc(-c2ccnc(C)n2)c1 (single isomer, unassigned) [Compound 48] | 66 | 85 | – |
| C=CC(=O)N1CCOC[C@H]1c1cc(Cl)cc(-c2cc(N)nc(F)n2)c1 (single isomer, unassigned) [Compound 283] | 18 | 94 | – |
| C=CC(=O)N1CCOCC1c1cc(Cl)cc(-c2ccnnc2)c1 (single isomer, unassigned) [Compound 14, 1-(3-(3-chloro-5-(pyridazin-4-yl)phenyl)morpholino)prop-2-en-1-one] | 144 | 55 | – |
| C=CC(=O)N1CCN(C(C)=O)C[C@H]1c1cc(Cl)cc(-c2ncccn2)c1 (single isomer, unassigned) [Compound 17] | 96.3 | 65 | – |
| C=CC(=O)N1CC2(CC2)N(C(=O)C2CC2)CC1c1cc(Cl)cc(-c2ncc(N)cn2)c1 (single isomer, unassigned) [Compound 267] | 10 | 94 | – |
| C=CC(=O)N1CC(C)(C)OCC1c1cc(Cl)nc(-c2cc(N)ncn2)c1 (single isomer, unassigned) [Compound 150, 1-(5-(2-(6-aminopyrimidin-4-yl)-6-chloropyridin-4-yl)-2,2-dimethylmorpholino)prop-2-en-1-one] | 31 | 97 | – |

Continued by falling IC50 (KEAP1 C151), values first:

| IC50 (KEAP1 C151) [nM] | SMILES | Emax (Nrf2) [%] | KYSE70 Cellular ARE Luciferase Imax (%) (Nrf2) |
| --- | --- | --- | --- |
| 870 | C=CC(=O)N1CC2(CC2)OCC1(C)c1cc(Cl)cc(-c2ccnc(N)n2)c1 (single isomer, unassigned) [Compound 161, 1-(6-(3-(2-aminopyrimidin-4-yl)-5-chlorophenyl)-6-methyl-4-oxa-7-azaspiro[2.5]octan-7-yl)prop-2-en-1-one] | 83 | – |
| 660 | C=CC(=O)N1CCOC[C@H]1c1cc(Cl)cc(C2CNC(=S)NC2)c1 (single isomer, unassigned) [Compound 233] | 83 | – |
| 520 | C=CC(=O)N1CCS(=O)(=O)CC1c1cc(Cl)cc(-c2ncnc(N)n2)c1 (single isomer, unassigned) [Compound 206, 1-(3-(3-(4-amino-1,3,5-triazin-2-yl)-5-chlorophenyl)-1,1-dioxidothiomorpholino)prop-2-en-1-one] | – | 55 |
| 440 | C=CC(=O)N1CC2(CCCC2)OCC1(C)c1cc(Cl)cc(-c2ncnc(N)n2)c1 (single isomer, unassigned) [Compound 164, 1-(8-(3-(4-amino-1,3,5-triazin-2-yl)-5-chlorophenyl)-8-methyl-6-oxa-9-azaspiro[4.5]decan-9-yl)prop-2-en-1-one] | 85 | – |
| 200 | C=C(C(=O)N1CCOC[C@H]1c1cc(Cl)cc(-c2ncnc(N)n2)c1)C(F)(F)F (single isomer, unassigned) [Compound 295] | 88 | – |
| 150 | C=CC(=O)N1CCOC[C@H]1c1cc(Cl)cc(C2CNC(=S)CO2)c1 (single isomer, unassigned) [Compound 240] | – | 61 |
| 140 | C=CC(=O)N1CC(C)(C)OC[C@H]1c1cc(Cl)cc(-c2cc(C)ncn2)c1 (single isomer, unassigned) [Compound 46] | 84 | – |
| 130 | C=CC(=O)N1CCOCC1c1cc(Cl)cc(C2CCOCC2)c1 (single isomer, unassigned) [Compound 5, 1-(3-(3-chloro-5-(tetrahydro-2H-pyran-4-yl)phenyl)morpholino)prop-2-en-1-one] | 70 | – |
| 120 | C=CC(=O)N1CCOCC1c1cc(Cl)nc(-c2cc[nH]c(=O)c2)c1 (single isomer, unassigned) [Compound 33, 4-(4-acryloylmorpholin-3-yl)-6-chloro-[2,4′-bipyridin]-2′(1′H)-one] | 82 | – |
| 120 | C=CC(=O)N1CC2(COC2)C1c1cc(Cl)cc(-c2ccnc(N)n2)c1 (single isomer, unassigned) [Compound 168] | 74 | – |
| 88.4 | C=CC(=O)N1CC(C)(C)OCC1c1cc(Cl)nc(-c2ccc(F)c(C(N)=O)c2)c1 (single isomer, unassigned) [Compound 69, 5-(4-(4-acryloyl-6,6-dimethylmorpholin-3-yl)-6-chloropyridin-2-yl)-2-fluorobenzamide] | 82 | – |
| 86 | C=CC(=O)N1CCOCC1c1cc(Cl)cc(-c2nccc(C(N)=O)n2)c1 (single isomer, unassigned) [Compound 77, 2-(3-(4-acryloylmorpholin-3-yl)-5-chlorophenyl)pyrimidine-4-carboxamide] | 82 | – |
| 60.5 | C=CC(=O)N1CCOC[C@H]1c1cc(Cl)cc(-c2nnn(C)n2)c1 (single isomer, unassigned) [Compound 9] | 76 | – |
| 50 | C=CC(=O)N1CCOC[C@H]1c1cc(Cl)cc(-c2cnc(N)c(OC)n2)c1 (single isomer, unassigned) [Compound 255] | 93 | – |
| 49 | C=CC(=O)N1CCOCC1c1cc(Cl)cc(-c2cnccn2)c1 (single isomer, unassigned) [Compound 54, 1-(3-(3-chloro-5-(pyrazin-2-yl)phenyl)morpholino)prop-2-en-1-one] | 70 | – |
| 37 | C=CC(=O)N1CCOCC1c1cc(Cl)cc(-c2ccncn2)c1 (single isomer, unassigned) [Compound 42, 1-(3-(3-chloro-5-(pyrimidin-4-yl)phenyl)morpholino)prop-2-en-1-one] | 79 | – |
| 22 | C=CC(=O)N1CCN(C(C)=O)C[C@H]1c1cc(Cl)cc(-c2ncnc(N)n2)c1 (single isomer, unassigned) [Compound 74] | 89 | – |
| 18 | C=CC(=O)N1CCOCC1c1cc(Cl)cc(-c2ccc3nccnc3c2)c1 (single isomer, unassigned) [Compound 34, 1-(3-(3-chloro-5-(quinoxalin-6-yl)phenyl)morpholino)prop-2-en-1-one] | 83 | – |
| 10 | C=CC(=O)N1[C@H](C)COC[C@H]1c1cc(Cl)cc(-c2ccnc(N3CCCC3=O)c2)c1 (single isomer, unassigned) [Compound 18] | 69 | – |
